Experimental data published in PubChem BioAssay AID2060894 (Molecular Pharmacology Branch, DTP, NCI, 2025).
One block for each compound: values may come before it.

System: K12877-001-R-J1-PDC complex spheroid viability
Assay: Anticancer human tumor K12877-001-R-J1-PDC patient-derived lung adenocarcinoma cell line growth inhibition [RAS]
Conditions: for IC50: curve of first compound; for viability, T/C: stronger effect = lower value
In short: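 Agents were tested in combination matrices in half-log decrements from a top concentration at or near clinical Cmax (10 microM if undetermined). Targets were multi-cell spheroids of tumour lines plus HUVEC and MSC stromal cells.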

[1] = second compound 0.000949 µM, first compound 0.0316 µM
[2] = second compound 0.000949 µM, first compound 0.1 µM
[3] = second compound 0.000949 µM, first compound 0.316 µM
[4] = second compound 0.000949 µM, first compound 1 µM
[5] = second compound 0.000949 µM, first compound 3.16 µM
[6] = second compound 0.000949 µM, first compound 10 µM
[7] = second compound 0.003 µM, first compound 0.0316 µM
[8] = second compound 0.003 µM, first compound 0.1 µM
[9] = second compound 0.003 µM, first compound 0.316 µM
[10] = second compound 0.003 µM, first compound 1 µM
[11] = second compound 0.003 µM, first compound 3.16 µM
[12] = second compound 0.003 µM, first compound 10 µM
[13] = second compound 0.00949 µM, first compound 0.0316 µM
[14] = second compound 0.00949 µM, first compound 0.1 µM
[15] = second compound 0.00949 µM, first compound 0.316 µM
[16] = second compound 0.00949 µM, first compound 1 µM
[17] = second compound 0.00949 µM, first compound 3.16 µM
[18] = second compound 0.00949 µM, first compound 10 µM
[19] = second compound 0.03 µM, first compound 0.0316 µM
[20] = second compound 0.03 µM, first compound 0.1 µM
[21] = second compound 0.03 µM, first compound 0.316 µM
[22] = second compound 0.03 µM, first compound 1 µM
[23] = second compound 0.03 µM, first compound 3.16 µM
[24] = second compound 0.03 µM, first compound 10 µM
[25] = second compound 0.0949 µM, first compound 0.0316 µM
[26] = second compound 0.0949 µM, first compound 0.1 µM
[27] = second compound 0.0949 µM, first compound 0.316 µM
[28] = second compound 0.0949 µM, first compound 1 µM
[29] = second compound 0.0949 µM, first compound 3.16 µM
[30] = second compound 0.0949 µM, first compound 10 µM
[31] = second compound 0.3 µM, first compound 0.0316 µM
[32] = second compound 0.3 µM, first compound 0.1 µM
[33] = second compound 0.3 µM, first compound 0.316 µM
[34] = second compound 0.3 µM, first compound 1 µM
[35] = second compound 0.3 µM, first compound 3.16 µM
[36] = second compound 0.3 µM, first compound 10 µM
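Also: spheroids exposed to agents for one week before readout.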
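For viability, T/C in this document: tumour cells co-cultured with HUVEC and mesenchymal stem cells in spheroids.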

IC50 (second compound 0.000949 µM): < 31.6 nM
IC50 (second compound 0.003 µM): < 31.6 nM
IC50 (second compound 0.00949 µM): < 31.6 nM
IC50 (second compound 0.03 µM): < 31.6 nM
IC50 (second compound 0.0949 µM): < 31.6 nM
IC50 (second compound 0.3 µM): < 31.6 nM
SMILES: CC(=O)OC12COC1CC(O)C1(C)C(=O)C(O)C3=C(C)C(OC(=O)C(O)C(NC(=O)OC(C)(C)C)c4ccccc4)CC(O)(C(OC(=O)c4ccccc4)C21)C3(C)C (stereo not given) + CCn1c(-c2cc(N3CCN(C)CC3)cnc2C(C)OC)c2c3cc(ccc31)-c1csc(n1)CC(NC(=O)C1CC1C)C(=O)N1CCCC(N1)C(=O)OCC(C)(C)C2
viability, T/C [1]: 7.37%
viability, T/C [2]: 5.79%
viability, T/C [3]: 4.69%
viability, T/C [4]: 5.58%
viability, T/C [5]: 7.53%
viability, T/C [6]: 12.1%
viability, T/C [7]: 5.77%
viability, T/C [8]: 4.36%
viability, T/C [9]: 3.51%
viability, T/C [10]: 4.48%
viability, T/C [11]: 5.26%
viability, T/C [12]: 14%
viability, T/C [13]: 5.17%
viability, T/C [14]: 4.24%
viability, T/C [15]: 3.37%
viability, T/C [16]: 3.68%
viability, T/C [17]: 4.57%
viability, T/C [18]: 12.9%
viability, T/C [19]: 4.63%
viability, T/C [20]: 2.99%
viability, T/C [21]: 3.02%
viability, T/C [22]: 3.05%
viability, T/C [23]: 4.55%
viability, T/C [24]: 10.7%
viability, T/C [25]: 4.19%
viability, T/C [26]: 2.73%
viability, T/C [27]: 2.45%
viability, T/C [28]: 2.46%
viability, T/C [29]: 3.56%
viability, T/C [30]: 9.41%
viability, T/C [31]: 3.57%
viability, T/C [32]: 2.99%
viability, T/C [33]: 2.53%
viability, T/C [34]: 2.8%
viability, T/C [35]: 4.22%
viability, T/C [36]: 9.04%

IC50 (second compound 0.000949 µM): 1310 nM
IC50 (second compound 0.003 µM): 1290 nM
IC50 (second compound 0.00949 µM): 1380 nM
IC50 (second compound 0.03 µM): 1510 nM
IC50 (second compound 0.0949 µM): 1270 nM
IC50 (second compound 0.3 µM): 1100 nM
SMILES: CCC(CC)c1cc(NC2CCC(N)C2)n2nccc2n1 (stereo not given) + CCn1c(-c2cc(N3CCN(C)CC3)cnc2C(C)OC)c2c3cc(ccc31)-c1csc(n1)CC(NC(=O)C1CC1C)C(=O)N1CCCC(N1)C(=O)OCC(C)(C)C2
viability, T/C [1]: 87.7%
viability, T/C [2]: 80%
viability, T/C [3]: 84.6%
viability, T/C [4]: 64.7%
viability, T/C [5]: 1.77%
viability, T/C [6]: 0.95%
viability, T/C [7]: 65.8%
viability, T/C [8]: 69.4%
viability, T/C [9]: 66.5%
viability, T/C [10]: 64%
viability, T/C [11]: 1.46%
viability, T/C [12]: 0.76%
viability, T/C [13]: 62%
viability, T/C [14]: 65.9%
viability, T/C [15]: 71.3%
viability, T/C [16]: 76.7%
viability, T/C [17]: 1.47%
viability, T/C [18]: 0.9%
viability, T/C [19]: 95.4%
viability, T/C [20]: 92.6%
viability, T/C [21]: 99.5%
viability, T/C [22]: 77.5%
viability, T/C [23]: 1.04%
viability, T/C [24]: 0.76%
viability, T/C [25]: 119%
viability, T/C [26]: 107%
viability, T/C [27]: 102%
viability, T/C [28]: 63.6%
viability, T/C [29]: 1.11%
viability, T/C [30]: 0.76%
viability, T/C [31]: 94.6%
viability, T/C [32]: 98.1%
viability, T/C [33]: 86.2%
viability, T/C [34]: 55.2%
viability, T/C [35]: 0.75%
viability, T/C [36]: 0.8%

IC50 (second compound 0.000949 µM): > 10000 nM
IC50 (second compound 0.003 µM): > 10000 nM
IC50 (second compound 0.00949 µM): > 10000 nM
IC50 (second compound 0.03 µM): > 10000 nM
IC50 (second compound 0.0949 µM): > 10000 nM
IC50 (second compound 0.3 µM): 8660 nM
SMILES: Cc1nc(N2CCC3(CC2)COC(C)C3N)c(CO)nc1Sc1ccnc(N)c1Cl (stereo not given) + CCn1c(-c2cc(N3CCN(C)CC3)cnc2C(C)OC)c2c3cc(ccc31)-c1csc(n1)CC(NC(=O)C1CC1C)C(=O)N1CCCC(N1)C(=O)OCC(C)(C)C2
viability, T/C [1]: 77.8%
viability, T/C [2]: 69.4%
viability, T/C [3]: 71.7%
viability, T/C [4]: 59%
viability, T/C [5]: 66.7%
viability, T/C [6]: 58.7%
viability, T/C [7]: 63.6%
viability, T/C [8]: 57.7%
viability, T/C [9]: 62.1%
viability, T/C [10]: 63.4%
viability, T/C [11]: 69.3%
viability, T/C [12]: 71.3%
viability, T/C [13]: 72.2%
viability, T/C [14]: 70.8%
viability, T/C [15]: 79.8%
viability, T/C [16]: 73.4%
viability, T/C [17]: 71.8%
viability, T/C [18]: 56.4%
viability, T/C [19]: 97.1%
viability, T/C [20]: 93.7%
viability, T/C [21]: 93.9%
viability, T/C [22]: 81%
viability, T/C [23]: 75.9%
viability, T/C [24]: 59.5%
viability, T/C [25]: 98.8%
viability, T/C [26]: 94%
viability, T/C [27]: 94.5%
viability, T/C [28]: 76.2%
viability, T/C [29]: 67.2%
viability, T/C [30]: 50.2%
viability, T/C [31]: 97.5%
viability, T/C [32]: 86.1%
viability, T/C [33]: 81.5%
viability, T/C [34]: 71.2%
viability, T/C [35]: 65.6%
viability, T/C [36]: 45.6%

IC50 (second compound 0.000949 µM): > 10000 nM
IC50 (second compound 0.003 µM): 7630 nM
IC50 (second compound 0.00949 µM): 4860 nM
IC50 (second compound 0.03 µM): 3490 nM
IC50 (second compound 0.0949 µM): 1330 nM
IC50 (second compound 0.3 µM): 937 nM
SMILES: NC1c2ccccc2OC12CCN(c1cnc3c(N4CCCc5ncccc54)n[nH]c3n1)CC2 (stereo not given) + CCn1c(-c2cc(N3CCN(C)CC3)cnc2C(C)OC)c2c3cc(ccc31)-c1csc(n1)CC(NC(=O)C1CC1C)C(=O)N1CCCC(N1)C(=O)OCC(C)(C)C2
viability, T/C [1]: 64.9%
viability, T/C [2]: 57.4%
viability, T/C [3]: 58%
viability, T/C [4]: 83.2%
viability, T/C [5]: 61.3%
viability, T/C [6]: 46.9%
viability, T/C [7]: 55.2%
viability, T/C [8]: 72.1%
viability, T/C [9]: 84.6%
viability, T/C [10]: 82.2%
viability, T/C [11]: 62.9%
viability, T/C [12]: 46%
viability, T/C [13]: 84.1%
viability, T/C [14]: 80%
viability, T/C [15]: 74.1%
viability, T/C [16]: 64.9%
viability, T/C [17]: 59.5%
viability, T/C [18]: 38.6%
viability, T/C [19]: 102%
viability, T/C [20]: 97.1%
viability, T/C [21]: 72.4%
viability, T/C [22]: 64%
viability, T/C [23]: 56.9%
viability, T/C [24]: 34.2%
viability, T/C [25]: 91.9%
viability, T/C [26]: 77.6%
viability, T/C [27]: 64.9%
viability, T/C [28]: 52.7%
viability, T/C [29]: 41.9%
viability, T/C [30]: 33%
viability, T/C [31]: 77.4%
viability, T/C [32]: 67.7%
viability, T/C [33]: 60%
viability, T/C [34]: 49.3%
viability, T/C [35]: 39.1%
viability, T/C [36]: 26%

IC50 (second compound 0.000949 µM): 13.9 nM
IC50 (second compound 0.003 µM): 13.4 nM
IC50 (second compound 0.00949 µM): 11.6 nM
IC50 (second compound 0.03 µM): 17.5 nM
IC50 (second compound 0.0949 µM): 16.8 nM
IC50 (second compound 0.3 µM): 17.4 nM
SMILES: Nc1ccn(C2OC(CO)C(O)C2(F)F)c(=O)n1 (stereo not given) + CCn1c(-c2cc(N3CCN(C)CC3)cnc2C(C)OC)c2c3cc(ccc31)-c1csc(n1)CC(NC(=O)C1CC1C)C(=O)N1CCCC(N1)C(=O)OCC(C)(C)C2
viability, T/C (second compound 0.000949 µM, first compound 0.00316 µM): 76.3%
viability, T/C (second compound 0.000949 µM, first compound 0.01 µM): 66.7%
viability, T/C [1]: 8.22%
viability, T/C [2]: 4.35%
viability, T/C [3]: 4.92%
viability, T/C [4]: 5.37%
viability, T/C (second compound 0.003 µM, first compound 0.00316 µM): 62.2%
viability, T/C (second compound 0.003 µM, first compound 0.01 µM): 64%
viability, T/C [7]: 10.9%
viability, T/C [8]: 4.55%
viability, T/C [9]: 4.11%
viability, T/C [10]: 4.17%
viability, T/C (second compound 0.00949 µM, first compound 0.00316 µM): 59.7%
viability, T/C (second compound 0.00949 µM, first compound 0.01 µM): 55.8%
viability, T/C [13]: 9.86%
viability, T/C [14]: 3.95%
viability, T/C [15]: 4.84%
viability, T/C [16]: 4.74%
viability, T/C (second compound 0.03 µM, first compound 0.00316 µM): 93.2%
viability, T/C (second compound 0.03 µM, first compound 0.01 µM): 86.8%
viability, T/C [19]: 10.9%
viability, T/C [20]: 4.44%
viability, T/C [21]: 4.77%
viability, T/C [22]: 3.54%
viability, T/C (second compound 0.0949 µM, first compound 0.00316 µM): 103%
viability, T/C (second compound 0.0949 µM, first compound 0.01 µM): 80.9%
viability, T/C [25]: 12.4%
viability, T/C [26]: 3.68%
viability, T/C [27]: 3.46%
viability, T/C [28]: 4.36%
viability, T/C (second compound 0.3 µM, first compound 0.00316 µM): 84.6%
viability, T/C (second compound 0.3 µM, first compound 0.01 µM): 80.6%
viability, T/C [31]: 17%
viability, T/C [32]: 2.67%
viability, T/C [33]: 3.61%
viability, T/C [34]: 2.74%
